Laboratory results published in ChEMBL document CHEMBL1139605, “Novel ketal ligands for the glucocorticoid receptor: in vitro and in vivo activity” (Bioorg Med Chem Lett, 2005).
Values belong to the compound of their own block, whether it stands above or below them.

Legend:
Glucocorticoid receptor [1] = biological target: T1, Glucocorticoid receptor (Homo sapiens, UniProt P04150); assay: Inhibition of human glucocorticoid receptor alpha isoform
T1 sequence (P04150 whole entry): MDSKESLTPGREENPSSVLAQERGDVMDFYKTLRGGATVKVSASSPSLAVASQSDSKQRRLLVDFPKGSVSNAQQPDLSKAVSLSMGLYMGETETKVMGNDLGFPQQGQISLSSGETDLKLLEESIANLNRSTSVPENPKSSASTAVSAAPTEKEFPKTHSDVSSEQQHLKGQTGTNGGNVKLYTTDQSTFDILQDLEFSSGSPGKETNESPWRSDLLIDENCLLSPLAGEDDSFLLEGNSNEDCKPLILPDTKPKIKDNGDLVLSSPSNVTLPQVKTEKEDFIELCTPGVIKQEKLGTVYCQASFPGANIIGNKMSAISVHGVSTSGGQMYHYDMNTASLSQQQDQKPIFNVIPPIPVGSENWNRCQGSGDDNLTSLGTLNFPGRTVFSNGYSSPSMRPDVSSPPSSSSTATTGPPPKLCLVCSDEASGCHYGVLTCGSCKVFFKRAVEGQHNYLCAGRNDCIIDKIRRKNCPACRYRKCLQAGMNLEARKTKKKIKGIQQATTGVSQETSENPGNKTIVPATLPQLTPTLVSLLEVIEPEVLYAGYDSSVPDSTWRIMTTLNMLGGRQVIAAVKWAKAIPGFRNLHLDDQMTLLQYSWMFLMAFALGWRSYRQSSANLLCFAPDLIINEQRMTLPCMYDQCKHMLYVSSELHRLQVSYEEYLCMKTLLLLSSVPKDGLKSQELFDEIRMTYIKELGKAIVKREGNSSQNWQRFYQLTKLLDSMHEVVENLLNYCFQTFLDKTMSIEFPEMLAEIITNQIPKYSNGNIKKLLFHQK

A549 [2] = assay: Effective concentration for inhibition of interleukin-6 in human A549 lung carcinoma cell line using 35% radiolabeled Dexamethasone; assay type: functional, cell-based
Mus musculus [3] = species: Mus musculus; assay: Effective concentration required for inhibition of interleukin-6 in mouse thioglycolate-elicited peritoneal exudate cell line using 70% radiolabeled Dexamethasone; assay type: functional
Mus musculus [4] = species: Mus musculus; assay: Effective concentration required for inhibition of interleukin-6 in mouse thioglycolate-elicited peritoneal exudate cell line using 111% radiolabeled Dexamethasone; assay type: functional
HepG2 = assay: Effective concentration required for induction of tyrosine aminotransferase in human HepG2 cells using 74% radiolabeled Dexamethasone; assay type: functional, cell-based
A549 [5] = assay: Effective concentration required for inhibition of interleukin-6 in human A549 lung carcinoma cell line using 93% radiolabeled Dexamethasone; assay type: functional, cell-based
[6] = Effective concentration required for induction of glutamine synthetase in human skeletal muscle cells using 45% radiolabeled Dexamethasone; assay type: functional
Mus musculus [7] = species: Mus musculus; assay: Effective concentration required for inhibition of interleukin-6 in mouse thioglycolate-elicited peritoneal exudate cell line using 69% radiolabeled Dexamethasone; assay type: functional
A549 [8] = assay: Effective concentration for inhibition of interleukin-6 in human A549 lung carcinoma cell line using 62% radiolabeled Dexamethasone; assay type: functional, cell-based
Mus musculus [9] = assay: Inhibition of LPS induced TNF-alpha secretion in mouse at an oral dose of 30 mg/kg relative to that produced by Dexamethasone at a dose of 0.3 mg/kg; assay type: functional
[10] = Clearance data in mouse at 2 mg/kg i.v. administration; assay type: ADME, organism-based; set-up: dose 2 mg/kg, route intravenous; settings: in vivo, iv
[11] = biological target: T2, Mineralocorticoid receptor (Rattus norvegicus, UniProt P22199); assay: Binding affinity for rat mineralocorticoid receptor
T2 sequence (P22199 whole entry): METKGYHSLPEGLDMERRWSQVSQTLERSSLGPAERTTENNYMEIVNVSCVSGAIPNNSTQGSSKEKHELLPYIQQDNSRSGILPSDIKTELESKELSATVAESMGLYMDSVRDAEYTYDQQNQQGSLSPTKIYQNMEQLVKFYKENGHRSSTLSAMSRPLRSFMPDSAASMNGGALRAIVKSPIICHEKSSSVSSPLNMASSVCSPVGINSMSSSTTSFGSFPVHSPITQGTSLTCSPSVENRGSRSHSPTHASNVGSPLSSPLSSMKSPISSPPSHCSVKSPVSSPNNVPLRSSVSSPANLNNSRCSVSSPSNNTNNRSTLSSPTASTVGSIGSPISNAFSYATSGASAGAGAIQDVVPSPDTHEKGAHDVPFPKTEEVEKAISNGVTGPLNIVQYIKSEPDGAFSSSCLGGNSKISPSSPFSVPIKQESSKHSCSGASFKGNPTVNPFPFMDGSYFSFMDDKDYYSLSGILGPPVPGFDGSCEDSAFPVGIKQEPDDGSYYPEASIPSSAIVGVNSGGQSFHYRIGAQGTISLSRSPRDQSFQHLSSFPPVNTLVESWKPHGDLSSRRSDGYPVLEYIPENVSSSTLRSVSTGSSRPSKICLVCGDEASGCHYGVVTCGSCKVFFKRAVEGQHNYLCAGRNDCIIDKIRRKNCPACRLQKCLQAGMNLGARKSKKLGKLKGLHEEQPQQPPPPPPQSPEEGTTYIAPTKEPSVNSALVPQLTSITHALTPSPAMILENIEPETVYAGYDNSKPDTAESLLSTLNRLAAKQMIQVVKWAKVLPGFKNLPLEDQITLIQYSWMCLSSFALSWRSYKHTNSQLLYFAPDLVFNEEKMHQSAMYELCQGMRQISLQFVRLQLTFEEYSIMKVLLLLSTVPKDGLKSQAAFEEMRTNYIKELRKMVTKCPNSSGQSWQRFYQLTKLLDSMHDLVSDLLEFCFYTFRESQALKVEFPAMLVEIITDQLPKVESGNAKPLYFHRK

A549 [12] = assay: Effective concentration for inhibition of interleukin-6 in human A549 lung carcinoma cell line using 58% radiolabeled Dexamethasone; assay type: functional, cell-based
Mus musculus [13] = species: Mus musculus; assay: Effective concentration required for interleukin-6 transrepression in peritoneal exudate cells of C57B1/6 mouse using 56% Dexamethasone; assay type: functional, cell-based
Progesterone receptor = biological target: T3, Progesterone receptor (Homo sapiens, UniProt P06401); assay: Binding affinity for human progesterone receptor
T3 sequence (P06401 whole entry): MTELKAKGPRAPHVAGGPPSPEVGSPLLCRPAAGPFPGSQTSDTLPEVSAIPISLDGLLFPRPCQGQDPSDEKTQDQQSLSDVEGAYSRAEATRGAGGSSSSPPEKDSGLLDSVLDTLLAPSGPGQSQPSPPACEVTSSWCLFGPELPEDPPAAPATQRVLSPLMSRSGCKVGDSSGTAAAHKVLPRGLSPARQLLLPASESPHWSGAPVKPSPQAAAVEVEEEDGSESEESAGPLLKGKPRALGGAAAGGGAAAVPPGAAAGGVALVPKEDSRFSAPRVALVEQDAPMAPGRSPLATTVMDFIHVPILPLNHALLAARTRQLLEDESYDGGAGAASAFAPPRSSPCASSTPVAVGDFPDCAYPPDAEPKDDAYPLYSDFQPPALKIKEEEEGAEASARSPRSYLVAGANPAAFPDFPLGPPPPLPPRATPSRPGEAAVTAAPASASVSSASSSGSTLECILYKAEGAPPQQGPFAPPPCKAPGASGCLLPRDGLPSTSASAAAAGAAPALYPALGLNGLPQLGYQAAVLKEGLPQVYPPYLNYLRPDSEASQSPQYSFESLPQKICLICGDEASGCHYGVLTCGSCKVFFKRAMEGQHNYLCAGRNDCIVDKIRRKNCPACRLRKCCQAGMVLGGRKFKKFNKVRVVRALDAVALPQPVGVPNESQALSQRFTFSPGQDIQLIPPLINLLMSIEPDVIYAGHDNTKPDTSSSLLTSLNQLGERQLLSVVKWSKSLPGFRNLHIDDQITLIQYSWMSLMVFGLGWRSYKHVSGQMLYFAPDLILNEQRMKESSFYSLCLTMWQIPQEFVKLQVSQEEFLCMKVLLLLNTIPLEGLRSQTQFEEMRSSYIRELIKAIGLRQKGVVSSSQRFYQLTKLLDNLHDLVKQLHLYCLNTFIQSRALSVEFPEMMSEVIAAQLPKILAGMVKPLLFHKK

[14] = Half life time in mouse at 2 mg/kg i.v. administration; assay type: ADME, organism-based; set-up: dose 2 mg/kg, route intravenous; settings: in vivo, iv
Estrogen receptor = biological target: T4, Estrogen receptor (Homo sapiens, UniProt P03372); assay: Binding affinity for human estrogen receptor alpha
T4 sequence (P03372 whole entry): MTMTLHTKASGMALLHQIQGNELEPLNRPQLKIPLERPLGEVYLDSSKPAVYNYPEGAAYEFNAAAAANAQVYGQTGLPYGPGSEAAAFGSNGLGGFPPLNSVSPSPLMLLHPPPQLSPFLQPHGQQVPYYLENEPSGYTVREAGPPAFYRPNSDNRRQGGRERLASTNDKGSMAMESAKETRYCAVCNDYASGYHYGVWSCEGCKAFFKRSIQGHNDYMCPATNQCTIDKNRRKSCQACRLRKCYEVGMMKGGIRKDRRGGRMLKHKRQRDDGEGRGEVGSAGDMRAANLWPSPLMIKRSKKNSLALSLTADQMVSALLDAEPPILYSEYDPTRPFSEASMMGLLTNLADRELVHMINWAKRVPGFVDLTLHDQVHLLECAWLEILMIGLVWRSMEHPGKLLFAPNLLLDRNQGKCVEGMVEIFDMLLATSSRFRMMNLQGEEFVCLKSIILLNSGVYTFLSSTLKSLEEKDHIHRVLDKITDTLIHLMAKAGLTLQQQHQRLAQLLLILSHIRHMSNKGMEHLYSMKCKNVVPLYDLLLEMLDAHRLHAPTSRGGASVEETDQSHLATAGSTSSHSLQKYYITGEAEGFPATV

[15] = Volume of distribution in mouse at 2 mg/kg i.v. administration; assay type: ADME, organism-based; set-up: dose 2 mg/kg, route intravenous; settings: in vivo, iv, read-out: Volume of distribution
Estrogen receptor beta = Estrogen receptor beta (Homo sapiens, UniProt Q92731); assay: Binding affinity for human estrogen receptor beta
Chain of Estrogen receptor beta (Q92731 whole entry): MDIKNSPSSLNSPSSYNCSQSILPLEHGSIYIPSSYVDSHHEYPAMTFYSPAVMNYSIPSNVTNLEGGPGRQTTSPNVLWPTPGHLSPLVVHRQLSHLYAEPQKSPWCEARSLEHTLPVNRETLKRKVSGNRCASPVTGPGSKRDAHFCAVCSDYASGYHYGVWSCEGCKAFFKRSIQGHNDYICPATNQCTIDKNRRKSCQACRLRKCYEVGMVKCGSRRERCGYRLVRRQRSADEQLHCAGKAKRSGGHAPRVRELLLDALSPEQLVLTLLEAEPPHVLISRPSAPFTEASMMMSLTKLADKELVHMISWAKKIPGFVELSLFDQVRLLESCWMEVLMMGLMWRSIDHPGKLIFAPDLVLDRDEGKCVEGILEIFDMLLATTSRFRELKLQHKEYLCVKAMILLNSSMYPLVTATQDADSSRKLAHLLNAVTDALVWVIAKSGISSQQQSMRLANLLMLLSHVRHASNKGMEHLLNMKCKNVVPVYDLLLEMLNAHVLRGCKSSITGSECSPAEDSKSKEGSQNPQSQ

[16] = Bioavailability in mouse (dose 10 mg/kg p.o.); assay type: ADME, organism-based; settings: in vivo, po
Glucocorticoid receptor [17] = biological target: T1, Glucocorticoid receptor; assay: Binding affinity for human glucocorticoid receptor
Mus musculus [18] = species: Mus musculus; assay: Effective concentration required for inhibition of interleukin-6 in mouse thioglycolate-elicited peritoneal exudate cell line using 56% radiolabeled Dexamethasone; assay type: functional
A549 [19] = assay: Effective concentration for inhibition of interleukin-6 in human A549 lung carcinoma cell line using […]% radiolabeled Dexamethasone; assay type: functional, cell-based
Mus musculus [20] = species: Mus musculus; assay: Effective concentration required for inhibition of interleukin-6 in mouse thioglycolate-elicited peritoneal exudate cell line using 52% radiolabeled Dexamethasone; assay type: functional
A549 [21] = assay: Effective concentration for inhibition of interleukin-6 in human A549 lung carcinoma cell line using 46% radiolabeled Dexamethasone; assay type: functional, cell-based

- IC50 (Glucocorticoid receptor [1]): 21 nM
- EC50 (A549 [2]): 0.53 nM
SMILES: C[C@H]1CCO[C@]2(CCC3=Cc4c(cnn4-c4ccc(F)cc4)C[C@@]32C)O1

- EC50 (Mus musculus [3]): 91 nM
- IC50 (Glucocorticoid receptor [1]): 8.5 nM
SMILES: C[C@]12Cc3cnn(-c4ccc(F)cc4)c3C=C1CC[C@]21OC[C@@H](c2ccccc2)O1

- EC50 (Mus musculus [4]): 7.6 nM
- IC50 (Glucocorticoid receptor [1]): 2.7 nM
- EC50 (HepG2): 164 nM
- EC50 (A549 [5]): 6.5 nM
- EC50 [6]: 17 nM
SMILES: C/C=C/[C@H]1OC2(CCC3=Cc4c(cnn4-c4ccc(F)cc4)C[C@@]32C)O[C@@H]1/C=C/C

- IC50 (Glucocorticoid receptor [1]): 26 nM
- EC50 (Mus musculus [7]): 10 nM
- EC50 (A549 [8]): 8.3 nM
SMILES: COC[C@H]1OC2(CCC3=Cc4c(cnn4-c4ccc(F)cc4)C[C@@]32C)O[C@@H]1COC

- clearance [10]: 114 mL/min/kg
- IC50 [11]: > 10000 nM
- EC50 (A549 [12]): 2.6 nM
- EC50 (Mus musculus [13]): 61 nM
- IC50 (Progesterone receptor): > 1000 nM
- IC50 (Glucocorticoid receptor [1]): 8 nM
- half-life [14]: 2.3 h
- IC50 (Estrogen receptor): > 10000 nM
- Vd [15]: 15.3 L/kg
- IC50 (Estrogen receptor beta): > 10000 nM
- bioavailability [16]: 14.3%
- IC50 (Glucocorticoid receptor [17]): 8 nM
- EC50 (Mus musculus [18]): 61 nM
SMILES: C=C[C@H]1OC2(CCC3=Cc4c(cnn4-c4ccc(F)cc4)C[C@@]32C)O[C@@H]1C=C
- Inhibition (Mus musculus [9]): 96.8%

- EC50 (A549 [19]): 9 nM
- IC50 (Glucocorticoid receptor [1]): 5.8 nM
- EC50 (Mus musculus [20]): 168 nM
SMILES: C=C[C@@H]1CO[C@]2(CCC3=Cc4c(cnn4-c4ccc(F)cc4)C[C@@]32C)O1

- EC50 (A549 [21]): 0.48 nM
- IC50 (Glucocorticoid receptor [1]): 18 nM
SMILES: C[C@@H]1CCO[C@@]2(CCC3=Cc4c(cnn4-c4ccc(F)cc4)C[C@@]32C)O1
